Measurements taken from patent US20240158369A1, “PYRIMIDINE COMPOUND AS WEE-1 INHIBITOR” (WIGEN BIOMEDICINE TECHNOLOGY (SHANGHAI) CO., LTD., priority 2021, published 2024).
pIC50: −log10 of the molar value. Like-named read-outs stand apart in the source and are kept apart here.

What was measured:
[1] = target: recombinant protein Wee-1 (Homo sapiens (Human), UniProt P30291); experiment: HTRF assay for inhibiting enzymatic activity of recombinant protein Wee-1; type: biochemical; details: compounds up to 200 nM, read-out: (IC50) Inhibitory activity against recombinant protein Wee-1
Experimental: The inhibitory effect of the compounds on the enzyme activity of recombinant protein Wee-1 was determined by HTRF. The procedures are as follows:
After DMSO or serially diluted compounds (up to 200 nM, 1:5 diluted) and recombinant proteins were co-incubated in a kinase buffer at 37° C. for 30 min before Fluorescein-PolyGAT and ATP were added, and the reaction was initiated by addition of a substrate. After incubation at room temperature for 90 min, an antibody and a detection solution were added, and after further incubation at room temperature for 60 min, fluorescence values were detected (excitation wavelength: 340 nm, emission wavelengths: 495 and 520 nm). The 520 nm/495 nm fluorescence intensity ratio value was calculated, and compared with that of the DMSO group, and then the inhibition percentages and IC50 values of the compounds were calculated.

[2] = system: HT29 subcutaneous xenograft tumor; experiment: Mouse HT29 subcutaneous xenograft tumor model (Example 165), with 30 mg/kg gemcitabine; type: in vivo
Experimental: HT29 is a colon cancer cell. Each nude mouse was grafted subcutaneously with 5×10^6HT29 cells. When the tumor grew to 100-200 mm^3, the compound was administered orally once a day in combination with 30 mg/kg of gemcitabine injected intraperitoneally once a week, and the tumor volume was measured twice a week and at the end of treatment. Tumor growth inhibition of the compound was calculated according to the following equation: tumor growth inhibition (TGI)=1−(tumor volume on day 20 in treatment group−tumor volume on day 1 in treatment group)/(tumor volume on day 20 in vehicle control group−tumor volume on day 1 in treatment group).

MIA PaCa-2 cells = experiment: In-vitro anti-proliferative activity in combination with gemcitabine on MIA PaCa-2 cells; type: cell-based; details: 72 h
Experimental: MIA PaCa-2 cells were seeded on a 384-well plate at 3000 cells/well, and 20 nM or 200 nM gemcitabine (GMC) was added. After overnight adherence culture, DMSO or the compounds serially 1:5-diluted from 100 nM were added. The viability was assessed 72 h after dosing by measuring the intracellular ATP content. The inhibition percentage of viable cells by the compounds was calculated by comparing with the DMSO group, and the IC50 value was calculated.

[3] = system: HT29 subcutaneous xenograft tumor; experiment: Mouse HT29 subcutaneous xenograft tumor model (Example 164), alone or with 15 mg/kg gemcitabine; type: in vivo
Experimental: HT29 is a colon cancer cell. Each nude mouse was grafted subcutaneously with 5×10^6HT29 cells. When the tumor grew to 100-200 mm^3, the compound was administered orally once a day alone or in combination with 15 mg/kg of gemcitabine injected intraperitoneally once a week, and the tumor volume was measured twice a week and at the end of treatment. Tumor growth inhibition of the compound was calculated according to the following equation: tumor growth inhibition (TGI)=1−(tumor volume on day 20 in treatment group−tumor volume on day 1 in treatment group)/(tumor volume on day 20 in vehicle control group−tumor volume on day 1 in treatment group).

[4] = 30 mg/kg orally once a day in combination with 30 mg/kg of gemcitabine ip once a week
[5] = 30 mg/kg orally once a day in combination with 30 mg/kg of gemcitabine ip once a week, day 20
[6] = with 20 nM gemcitabine, read-out: in combination with 20 nM GMC IC50
[7] = 30 mg/kg orally once a day in combination with 15 mg/kg of gemcitabine ip once a week, day 1
[8] = 30 mg/kg orally once a day in combination with 15 mg/kg of gemcitabine ip once a week, day 20
[9] = monotherapy, 30 mg/kg orally once a day, nude mouse HT29, day 1
[10] = monotherapy, 30 mg/kg orally once a day, nude mouse HT29, day 20
[11] = with 200 nM gemcitabine, read-out: in combination with 200 nM GMC IC50
[12] = gemcitabine alone 15 mg/kg intraperitoneally once a week, day 20

Sequence of recombinant protein Wee-1 (P30291 whole entry): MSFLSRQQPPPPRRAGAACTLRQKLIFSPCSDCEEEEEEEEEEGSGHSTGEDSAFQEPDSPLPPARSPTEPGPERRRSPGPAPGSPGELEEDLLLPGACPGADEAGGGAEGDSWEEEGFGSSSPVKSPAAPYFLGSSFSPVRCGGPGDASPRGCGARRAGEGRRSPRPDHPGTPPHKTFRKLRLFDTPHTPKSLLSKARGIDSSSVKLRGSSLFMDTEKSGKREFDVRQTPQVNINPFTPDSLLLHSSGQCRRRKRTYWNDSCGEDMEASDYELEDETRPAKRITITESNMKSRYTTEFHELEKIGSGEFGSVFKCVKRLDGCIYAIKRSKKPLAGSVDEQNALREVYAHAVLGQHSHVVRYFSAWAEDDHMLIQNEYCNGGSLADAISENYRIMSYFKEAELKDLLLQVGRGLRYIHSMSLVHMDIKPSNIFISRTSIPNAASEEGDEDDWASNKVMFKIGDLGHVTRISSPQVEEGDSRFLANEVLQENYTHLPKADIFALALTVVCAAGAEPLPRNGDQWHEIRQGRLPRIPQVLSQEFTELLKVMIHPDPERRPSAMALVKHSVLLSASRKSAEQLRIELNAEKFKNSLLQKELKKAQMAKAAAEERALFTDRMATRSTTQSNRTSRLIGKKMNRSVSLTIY

Compound	pIC50 [1]	pIC50 (MIA PaCa-2 cells; [6])	other results
COCCCc1cc(Nc2ncc(C#N)c(Nc3cccc(N=S(C)(C)=O)n3)n2)cc2c1CCN(C)C2 [Compound 128]	≥ 8.00	8.60	Tumor volume on day 20 of treatment (mm^3) [2, 4]: 284 mm^3; TGI [2, 5]: 87%
CN1CCc2c(cc(Nc3ncc(C#N)c(Nc4cccc(N=S(C)(C)=O)n4)n3)cc2C2CCCC2)C1 [Compound 18]	≥ 8.00	8.68	Tumor volume on day 20 of treatment (mm^3) [2, 4]: 218 mm^3; TGI [2, 5]: 92%
CN1CCc2c(cc(Nc3ncc(C#N)c(Nc4cccc(N=S(C)(C)=O)n4)n3)cc2C2CC2)C1 [Compound 16]	≥ 8.00		Tumor volume on day 1 of treatment (mm^3) [3, 7]: 102 mm^3; TGI [3, 8]: 104%; Tumor volume on day 20 of treatment (mm^3) [3, 8]: 58 mm^3; Tumor volume on day 1 of treatment (mm^3) [3, 9]: 102 mm^3; TGI [3, 10]: 79%; Tumor volume on day 20 of treatment (mm^3) [3, 10]: 307 mm^3; pIC50 (MIA PaCa-2 cells; [11]): 9.00
CC(C)c1cc(Nc2ncc(C#N)c(Nc3cccc(N=S(C)(C)=O)n3)n2)cc2c1CCN(C)C2 [Compound 14]	≥ 8.00	9.00	Tumor volume on day 20 of treatment (mm^3) [2, 4]: 38 mm^3; TGI [2, 5]: 106%
CN(C)C1CCc2ccc(Nc3ncc(C#N)c(Nc4cccc(N=S(C)(C)=O)n4)n3)cc2CC1 (stereo not drawn) [Compound 52]	≥ 8.00	8.35	
CN1CCc2ccc(Nc3ncc(C#N)c(-c4c[nH]c5c(N=S(C)(C)=O)cccc45)n3)cc2C1 [Compound 78]	≥ 8.00	< 7.00	
CN1CCc2ccc(Nc3ncc(S(C)(=O)=O)c(Nc4cccc(N=S(C)(C)=O)n4)n3)cc2C1 [Compound 5]	< 7.30	< 7.00	
CN1CCc2c(cc(Nc3ncc(C#N)c(Nc4cccc(N=S(C)(C)=O)n4)n3)cc2C2CCOCC2)C1 [Compound 117]	≥ 8.00	8.82	Tumor volume on day 20 of treatment (mm^3) [2, 4]: 283 mm^3; TGI [2, 5]: 87%
CN1CCc2c(cc(Nc3ncc(C#N)c(Nc4cccc(N=S(C)(C)=O)n4)n3)cc2N2CCCCC2)C1 [Compound 115]	≥ 8.00	8.03	
CN1CCc2c(cc(Nc3ncc(C#N)c(Nc4cccc(N=S(C)(C)=O)n4)n3)cc2C2CCC2)C1 [Compound 97]	≥ 8.00	8.80	Tumor volume on day 20 of treatment (mm^3) [2, 4]: 278 mm^3; TGI [2, 5]: 88%
C#Cc1cnc(Nc2ccc3c(c2)CN(C)CC3)nc1Nc1cccc(N=S(C)(C)=O)n1 [Compound 107]	≥ 8.00	7.58	
CN1CCc2c(cc(Nc3ncc(C#N)c(Nc4cccc(N=S(C)(C)=O)n4)n3)cc2-c2ccccc2)C1 [Compound 111]	≥ 8.00	8.19	
CCc1cc(Nc2ncc(C#N)c(Nc3cccc(N=S(C)(C)=O)n3)n2)cc2c1CCN(C)C2 [Compound 13]	≥ 8.00		Tumor volume on day 1 of treatment (mm^3) [3, 7]: 102 mm^3; TGI [3, 8]: 109%; Tumor volume on day 20 of treatment (mm^3) [3, 8]: 14 mm^3; Tumor volume on day 1 of treatment (mm^3) [3, 9]: 102 mm^3; TGI [3, 10]: 97%; Tumor volume on day 20 of treatment (mm^3) [3, 10]: 129 mm^3; pIC50 (MIA PaCa-2 cells; [11]): 9.00
CN1CCc2ccc(Nc3ncc(C(N)=O)c(Nc4cccc(N=S(C)(C)=O)n4)n3)cc2C1 [Compound 6]	< 7.30	< 7.00	
CN(C)C1Cc2ccc(Nc3ncc(C#N)c(Nc4cccc(N=S(C)(C)=O)n4)n3)cc2C1 (stereo not drawn) [Compound 60]	≥ 8.00	7.99	
COc1cc(Nc2ncc(C#N)c(Nc3cccc(N=S(C)(C)=O)n3)n2)cc2c1CCN(C)C2 [Compound 22]	≥ 8.00		pIC50 (MIA PaCa-2 cells; [11]): 8.92
CS(C)(=O)=Nc1cccc(Nc2nc(Nc3ccc4c(c3)CCC(N3CCCC3)CC4)ncc2C#N)n1 (stereo not drawn) [Compound 146]	≥ 8.00	8.32	
C#Cc1cc(Nc2ncc(C#N)c(Nc3cccc(N=S(C)(C)=O)n3)n2)cc2c1CCN(C)C2 [Compound 43]	≥ 8.00	7.67	
CN1CCN(c2ccc(Nc3ncc(C#N)c(Nc4cccc(N=S(C)(C)=O)n4)n3)cc2C2CC2)CC1 [Compound 155]	≥ 8.00	8.27	

Compound	pIC50 [1]	pIC50 (MIA PaCa-2 cells; [6])	other results
CN1CCc2c(cc(Nc3ncc(C#N)c(Nc4cccc(N=S(C)(C)=O)n4)n3)cc2C2=CCOCC2)C1 [Compound 118]	≥ 8.00	8.96	
C=Cc1cc(Nc2ncc(C#N)c(Nc3cccc(N=S(C)(C)=O)n3)n2)cc2c1CCN(C)C2 [Compound 42]	≥ 8.00		pIC50 (MIA PaCa-2 cells; [11]): 8.00
Nc1ccn([C@@H]2O[C@H](CO)[C@@H](O)C2(F)F)c(=O)n1 [Gemcitabine, gemcitabine, reference compound]			Tumor volume on day 1 of treatment (mm^3) ([3]; gemcitabine alone 15 mg/kg intraperitoneally once a week, day 1): 102 mm^3; TGI [3, 12]: 54%; Tumor volume on day 20 of treatment (mm^3) [3, 12]: 550 mm^3; inhibition in vivo at 30 mg/kg ([2]; Mus musculus, HT-29, ip, 480 h, gemcitabine alone 30 mg/kg intraperitoneally once a week, day 20, read-out: TGI): 60%; Tumor volume on day 20 of treatment (mm^3) ([2]; gemcitabine alone 30 mg/kg intraperitoneally once a week): 653 mm^3
CNC(=O)c1cnc(Nc2ccc3c(c2)CN(C)CC3)nc1Nc1cccc(N=S(C)(C)=O)n1 [Compound 7]	< 7.30	< 7.00	
CN1CCc2ccc(Nc3ncc(-c4ccco4)c(Nc4cccc(N=S(C)(C)=O)n4)n3)cc2C1 [Compound 9]	< 7.30	< 7.00	
CN1CCc2c(F)cc(Nc3ncc(C#N)c(Nc4cccc(N=S(C)(C)=O)n4)n3)cc2C1 [Compound 25]	≥ 8.00	7.73	
CCN1CCc2c(cc(Nc3ncc(C#N)c(Nc4cccc(N=S(C)(C)=O)n4)n3)cc2C2CC2)C1 [Compound 137]	≥ 8.00	8.48	Tumor volume on day 1 of treatment (mm^3) [3, 7]: 102 mm^3; TGI [3, 8]: 100%; Tumor volume on day 20 of treatment (mm^3) [3, 8]: 97 mm^3; Tumor volume on day 1 of treatment (mm^3) [3, 9]: 102 mm^3; TGI [3, 10]: 51%; Tumor volume on day 20 of treatment (mm^3) [3, 10]: 573 mm^3
COC/C=C/c1cc(Nc2ncc(C#N)c(Nc3cccc(N=S(C)(C)=O)n3)n2)cc2c1CCN(C)C2 [Compound 129]	≥ 8.00	8.38	
CN1CCc2c(cc(Nc3ncc(C#N)c(Nc4cccc(N=S(C)(C)=O)n4)n3)cc2C2(C)CC2)C1 [Compound 101]	≥ 8.00	8.36	Tumor volume on day 20 of treatment (mm^3) [2, 4]: 95 mm^3; TGI [2, 5]: 102%
CN1CCc2ccc(Nc3ncc(-c4cn[nH]c4)c(Nc4cccc(N=S(C)(C)=O)n4)n3)cc2C1 [Compound 10]	< 7.30	< 7.00	
CC(C)Cc1cc(Nc2ncc(C#N)c(Nc3cccc(N=S(C)(C)=O)n3)n2)cc2c1CCN(C)C2 [Compound 87]		8.74	Tumor volume on day 20 of treatment (mm^3) [2, 4]: 395 mm^3; TGI [2, 5]: 79%
CN1CCC(N2CCN(c3ccc(Nc4ncc(C#N)c(Nc5cccc(N=S(C)(C)=O)n5)n4)cc3)CC2)CC1 [Compound 62]	≥ 8.00	7.90	
COC1CCN(c2cc(Nc3ncc(C#N)c(Nc4cccc(N=S(C)(C)=O)n4)n3)cc3c2CCN(C)C3)CC1 [Compound 120]	≥ 8.00	8.35	
CN1CCc2c(cc(Nc3ncc(C#N)c(Nc4cccc(N=S(C)(C)=O)n4)n3)cc2C(F)(F)F)C1 [Compound 20]	≥ 8.00	7.60	
COCc1cc(Nc2ncc(C#N)c(Nc3cccc(N=S(C)(C)=O)n3)n2)cc2c1CCN(C)C2 [Compound 124]	≥ 8.00	8.57	
CN1CCc2ccc(Nc3ncc(Br)c(Nc4cccc(N=S(C)(C)=O)n4)n3)cc2C1 [Compound 11]	≥ 8.00	7.80	
CN1CCc2ccc(Nc3ncc(C#N)c(-n4cnc5c(N=S(C)(C)=O)cccc54)n3)cc2C1 [Compound 80]	7.30 to 8.00		pIC50 (MIA PaCa-2 cells; [11]): < 7.00
CS(C)(=O)=Nc1cccc(Nc2nc(Nc3cc4c(c(C5CC5)c3)CCNC4)ncc2C#N)n1 [Compound 148]	≥ 8.00	8.68	
